Several values for one entry are separate records, joined by “and”; a condition that tells them apart may be missing. Identical values can stand only once. Each block holds one compound with its values, some of them ahead of it.
Assays:
[1] = Storage stability of beta-keto calcium salt prodrug of Nabumetone (17 days at 60° C., HPLC); assay type: physicochemical; conditions: for Relative amount of calcium salt beta-keto prodrug/Nabumetone remaining after 17 days at 60° C.: dry calcium salt, oven at 60° C.
[2] = In-vitro hydrolysis of Nabumetone beta-keto ester pro-prodrug and release of Nabumetone in model blood electrolyte solution at 37° C.; assay type: physicochemical; conditions: model blood solutes solution
[3] = Aqueous solubility of sodium beta-keto salt prodrug of Nabumetone (Example 13b); assay type: physicochemical; conditions: clear liquid after 3.5 h at 37° C. in 0.5 M NaOH; 200 μL diluted with 5.0 ml mobile phase
Procedure: 12.1 mg of the of ethyl-5-(6-methoxy-2-naphthyl)-beta-keto-pentanoate product prepared and purified as in Example 8 was mixed with 25 mL of a 0.5 M aqueous solution NaOH and homogenised on a vortex mixer. […] 15 minutes after preparation of the sample, the sample was transferred to an oil bath set at 37° C. with continuous gentle magnetic stirring, and kept there for 3.5 hours. Crystalline flakes remained in the sample at the end of the 3.5 hours heat-treatment, and the sample was thereafter centrifuged and the clear liquid above the sedimented crystals was analysed by HPLC as described above.
After storage around one hour at room temperature a fraction of the sample was then filtered twice through a 0.2 μm filter (Whatman, 0.2 μm PS) fitted to a syringe to give a clear solution. 200 μL of this filtered solution was transferred, in a tightly closed vessel, to an oil bath at 95° C. and kept at this temperature for about 5 hours to bring about quantitative decarboxylation of the labile, dissolved beta-keto carboxylic salt prodrug derivative of Nabumetone.
The heated sample was then mixed with 35 mL of mobile phase (see Example 1) whereby a few solid crystals (comprising Nabumetone) was seen to not dissolve. In order to assure a correct sampling for HPLC analysis, 5 mL of the 35 mL sample was filtered through a 0.2 μm filter, after the whole 35 mL sample had been pH adjusted to 4.21 by 300 μL 0.1 M HCl+100 μL 1 M HCl, to assure that the pH of the sample was close to the pH of the mobile phase itself (pH 4.30). The filtered solution was thereafter analysed by HPLC and found to contain 0.777 mg Nabumetone per liter. If recalculated to the corresponding concentration of nabumetone equivalents in the form of the beta-keto salt prodrug present in dissolved form in the filtered 200 μl sample that was subsequently heat-treated to form Nabumetone above, the obtained concentration corresponds to a Nabumetone concentration of 136.7 mg Nabumetone per liter in the clear aqueous solution, at room temperature, before the heat-treatment at 95° C.

[4] = Storage stability of benzoylacetate salts and their corresponding acid (HPLC or gravimetric); assay type: physicochemical; conditions: for weight % of initial amount: Solid benzoylacetic acid, room T and ambient indoor humidity
Procedure: A 0.2 M solution of ethyl benzoyl acetate (90%, Sigma Aldrich) in 0.5 M NaOH (aq) was prepared at room temperature and stirred for typically 5-24 hours, still at room temperature. After this time a major part of the ethyl benzoyl acetate had been transformed into dissolved sodium benzoyl acetate, as evidenced by monitoring the reaction by analysis of samples by reversed phase HPLC. Some acetophenone and remaining ethyl benzoyl acetate were typically present in the samples, but in minor amounts. The method employed a C8 column with an inner diameter of 150×4.6 mm and 5 micron particles. The mobile phase consisted of 400 ml deionized water+600 ml acetonitrile+0.196 g H3PO4 (85%)+2.760 g NaH2PO4*H2O. The flow rate was set to 1.0 mL/min and UV detection at 254 nm was employed for analysis of the compounds ethylbenzoylacetate (precursor), benzoylacetate (model prodrug) and acetophenone (model drug).
The storage stability of the sodium and calcium salts of benzoylacetate, and of benzoylacetic acid, in solid form, and in aqueous solutions, was investigated by storage of samples under various conditions (see Table 3a above) with regular HPLC- or gravimetric measurements of the samples from time to time. Samples denoted “neutralized” were prepared from a solution prepared as described in Example 1, which was neutralized with diluted HCl after performing the steps in Example 1.
From the data it can be concluded that the best storage stability at room temperature is obtained by storage in the form of the calcium salt.

[5] = Sustained release of acetophenone in vitro in pig blood at 37° C.; conditions: for Benzoyl acetate ion concentration: pig blood pH 6.63

Compound: 5-(6-methoxy-2-naphthyl)-beta-keto-pentanoate [Beta keto salt prodrug]
- half life ([1]; calcium salt form at 20° C., rule of thumb of doubling of reaction rate per 10° C.): ~270 days
- Obtained value (area units) ([1]; dry calcium salt after 17 days at 60° C., redissolved in water, HPLC): 1591 area units
- Relative amount of calcium salt beta-keto prodrug/Nabumetone remaining after 17 days at 60° C. [1]: 54.7%
- Relative amount of calcium salt beta-keto prodrug/Nabumetone remaining after 17 days at 60° C. ([1]; listed as calcium beta-keto salt prodrug of Nabumetone): more than 50%
- Expected value if no breakdown occured during storage and a 100% yield was obtained upon precipitation with calcium chloride ([1]; recalculated for dilution): 55938 area units

- Pro-prodrug/beta-keto ester (HPLC peak area) ([2]; Time 0.00 hours): 1440 arbitrary units
- Pro-prodrug/beta-keto ester (HPLC peak area) ([2]; Time 0.67 hours): 1368 arbitrary units
- Pro-prodrug/beta-keto ester (HPLC peak area) ([2]; Time 1.67 hours): 1395 arbitrary units
- Pro-prodrug/beta-keto ester (HPLC peak area) ([2]; Time 2.67 hours): 1145 arbitrary units
- Pro-prodrug/beta-keto ester (HPLC peak area) ([2]; Time 4.58 hours): 1130 arbitrary units
- Pro-prodrug/beta-keto ester (HPLC peak area) ([2]; Time 22.6 hours): 780 arbitrary units
- Pro-prodrug/beta-keto ester (HPLC peak area) ([2]; Time 28.8 hours): 672 arbitrary units
- Pro-prodrug/beta-keto ester (HPLC peak area) ([2]; Time 48.8 hours): 618 arbitrary units
- Pro-prodrug/beta-keto ester (HPLC peak area) ([2]; Time 53.6 hours): 0 arbitrary units
- Pro-prodrug/beta-keto ester (HPLC peak area) ([2]; Time 121.25 hours): 0 arbitrary units
- Pro-prodrug/beta-keto ester (HPLC peak area) ([2]; Time 145.0 hours): 0 arbitrary units
- Pro-prodrug/beta-keto ester (HPLC peak area) ([2]; Time 172.6 hours): 0 arbitrary units
- Pro-prodrug/beta-keto ester (HPLC peak area) ([2]; Time 197.3 hours): 0 arbitrary units
- Pro-prodrug/beta-keto ester (HPLC peak area) ([2]; Time 218.4 hours): 0 arbitrary units
- Pro-prodrug/beta-keto ester (HPLC peak area) ([2]; Time 293.7 hours): 0 arbitrary units
- Pro-prodrug/beta-keto ester (HPLC peak area) ([2]; Time 335 hours): 0 arbitrary units
- Area at retention time […] characteristic for detection of the beta-keto ester pro-prodrug [3]: 632 arbitrary units
Compound: CCOC(=O)CC(=O)CCc1ccc2cc(OC)ccc2c1 [Pro-prodrug/beta-keto ester, ethyl-5-(6-methoxy-2-naphthyl)-beta-keto-pentanoate]
- Pro-prodrug/beta-keto ester (HPLC peak area) ([2]; Time 70.3 hours): 227 arbitrary units and 245 arbitrary units

Compound: COc1ccc2cc(CCC(=O)CC(=O)O)ccc2c1 [Prodrug/beta-keto anion, 5-(6-methoxy-2-naphthyl)-beta-keto-pentanoate]
- Prodrug/beta-keto anion (HPLC area) ([2]; Time 0.00 hours): 2055 arbitrary units
- Prodrug/beta-keto anion (HPLC area) ([2]; Time 0.67 hours): 2313 arbitrary units
- Prodrug/beta-keto anion (HPLC area) ([2]; Time 1.67 hours): 2383 arbitrary units
- Prodrug/beta-keto anion (HPLC area) ([2]; Time 2.67 hours): 2266 arbitrary units
- Prodrug/beta-keto anion (HPLC area) ([2]; Time 4.58 hours): 2204 arbitrary units
- Prodrug/beta-keto anion (HPLC area) ([2]; Time 22.6 hours): 2079 arbitrary units
- Prodrug/beta-keto anion (HPLC area) ([2]; Time 28.8 hours): 2284 arbitrary units
- Prodrug/beta-keto anion (HPLC area) ([2]; Time 48.8 hours): 2312 arbitrary units
- Prodrug/beta-keto anion (HPLC area) ([2]; Time 53.6 hours): 2350 arbitrary units
- Prodrug/beta-keto anion (HPLC area) ([2]; Time 70.3 hours): 2087 arbitrary units and 2313 arbitrary units
- Prodrug/beta-keto anion (HPLC area) ([2]; Time 96.8 hours): 1915 arbitrary units and 1922 arbitrary units
- Prodrug/beta-keto anion (HPLC area) ([2]; Time 121.25 hours): 1620 arbitrary units
- Prodrug/beta-keto anion (HPLC area) ([2]; Time 145.0 hours): 1444 arbitrary units
- Prodrug/beta-keto anion (HPLC area) ([2]; Time 172.6 hours): 1220 arbitrary units
- Prodrug/beta-keto anion (HPLC area) ([2]; Time 197.3 hours): 1043 arbitrary units
- Prodrug/beta-keto anion (HPLC area) ([2]; Time 218.4 hours): 943 arbitrary units
- Prodrug/beta-keto anion (HPLC area) ([2]; Time 293.7 hours): 400 arbitrary units
- Prodrug/beta-keto anion (HPLC area) ([2]; Time 335 hours): 398.5 arbitrary units

- weight % of initial amount ([4]; storage time 0 days): 100 weight %
- weight % of initial amount ([4]; storage time 9 days): 94.7 weight %
- weight % of initial amount ([4]; storage time 23 days): 87.4 weight %
- weight % of initial amount ([4]; storage time 27 days): 85.4 weight %
- weight % of initial amount ([4]; storage time 29 days): 84.4 weight %
- weight % of initial amount ([4]; storage time 35 days): 81.9 weight %
- weight % of initial amount ([4]; storage time 42 days): 79.4 weight %
- weight % of initial amount ([4]; storage time 52 days): 73.6 weight %
- half-life ([4]; solid dry acid, typical indoor conditions): ~100 days
Compound: O=C(O)CC(=O)c1ccccc1 [benzoylacetic acid]

Compound: benzoyl acetate [Benzoyl acetate ion]
- half life ([5]; pig blood pH 6.63, 37° C.): about 3 hours
- period of sustained release of the acetophenone (model drug) ([5]; pig blood pH 6.63, 37° C.): at least 6 hours
- Benzoyl acetate ion concentration ([5]; Time at 37° C. 0.25): 1.83 mM
- Benzoyl acetate ion concentration ([5]; Time at 37° C. 1.33): 1.54 mM
- Benzoyl acetate ion concentration ([5]; Time at 37° C. 2.58 (sampling time possibly exchanged with 4.75)): 1.17 mM
- Benzoyl acetate ion concentration ([5]; Time at 37° C. 4.75 (sampling time possibly exchanged with 2.58)): 0.929 mM
- Benzoyl acetate ion concentration ([5]; Time at 37° C. 5.58): 0.724 mM
- Benzoyl acetate ion concentration ([5]; Time at 37° C. 6.58): 0.641 mM
- Benzoyl acetate ion concentration ([5]; Time at 37° C. 22.58): 0.0356 mM
- Benzoyl acetate ion concentration ([5]; Time at 37° C. −0.17 (analysed just before heating to 37° C.)): 2.30 mM

— patent publication US20120065179A1, “PRODRUG COMPRISING BETA-KETO CARBOXYLIC ACID, BETA-KETO CARBOXYLIC ACID SALT OR BETA-KETO CARBOXYLIC ACID ESTER FOR DRUG DELIVERY” (YKI, Ytemiska Institutet AB, priority 2009, published 2012)
